Patent US11034839B2, “Compounds, linked with haptens, for the detection of senescent cells” (THE UNIVERSITY OF MANCHESTER, priority 2016, dated 2021)

Key:
[1] = test system: HeLa cancer cells and near normal Li-Fraumeni fibroblasts; assay: False-positive studies (cell confluency, serum starvation); assay type: cell-based, human
Text: The in vitro models comprised seven cellular systems. […] The same cellular system was used at early passages that underwent SIPS upon y-irradiation and was compared in relation to non-irradiated counterparts. Another set of models comprised two inducible Saos2 Tet-ON osteosarcoma cell lines carrying p53 and p21^WAF1/Cip1, respectively, two well established effectors of senescence (Georgakopoulou et al., 2013; Galanos et al., 2016). Finally, the U2OS-E2F1 ER, U205-Cdt1 Tet-ON and HBECs-Cdc6 Tet-ON inducible systems that undergo SIPS due to oncogenic stress signals were also utilized (Petrakis et al., 2016; Liontos et al., 2007; Liontos et al., 2009). Parental cell lines were obtained either directly from ATCC or from collaborating laboratories that generated them. In addition, the human cancer cell line HeLa and near normal Li-Fraumeni fibroblasts (Galanos et al., 2016) were also employed as control cell lines for the specificity of staining of the SBB compounds.

[2] = test system: senescent cells in induced Saos2-p21 cells and irradiated human diploid lung fibroblasts (DLFs); assay: Streptavidin-HRP/DAB labeling of cell spreads; assay type: cell-based; details: cell spreads on cover slips, panels 6ai and 6bi
Experimental: In inventive example 3, the derivative […] was used to detect senescent cells in cell spreads using streptavidin-horse radish peroxidase (HRP)/DAB labeling.
Induced and non-induced Saos2-p21^WAF1/Cip1 […] cells as well as human lung fibroblasts (DLFs) non- and y-irradiated were grown on cover slips and collected before and after the mentioned respective treatments for induction of senescence. Cover slips were treated as follows: • a. Fixation in ice-cold ethanol or methanol for 4 min. • b. Blocking of endogenous peroxidase activity with 3% H2O2 for 10 min. • c. Quick wash in 50% (v/v) ethanol. • d. Application of LG13 dye, diluted in ethanol and filtered, on cells for 10 min. • e. Quick wash in 50% (v/v) ethanol. • f. Transfer and wash in TBS or PBS solution. • g. Incubation in streptavidin-HRP (horse radish peroxidase) conjugated (dilution 1/200), for ½ hr at room temperature. • h. Quick wash in TBS or PBS solution. • i. Staining with 3,3′-Diaminobenzidine (DAB) solution (dilution 1/300 in TBS or PBS) for 1 min at room temperature. • j. Counterstain with Nuclear Fast Red, followed by mounting with glycerol and sealing with a cover slip. • k. Microscopy observation.

senescent cells = assay: Flow cytometry analysis for detection of senescent cells in cell culture; assay type: cell-based; details: HIC assay adapted to flow cytometry, FIG. 10
Experimental: In inventive example 7 the derivative LG13 was used to detect lipofuscin rich cells in cell aspirations or cell cultures by flow cytometry analysis.
• 1. Cells harvested from culture are fixed in EtOH 70% at 4° C. • 2. Centrifuge at 1200 rpm for 5 min at RT. • 3. Wash ×1 in 5 ml PBS at RT. • 4. Centrifuge at 1200 rpm for 5 min at RT. • 5. Incubate in 0.1% Triton X/PBS for 15 min at RT. • 6. Centrifuge at 1200 rpm for 5 min at RT. • 7. Wash ×1 EtOH 50% for 5 min at RT • 8. Centrifuge at 1200 rpm for 5 min at RT. • 9. Wash ×1 EtOH 70% for 5 min at RT. • 10. Centrifuge at 1200 rpm for 5 min at RT. • 11. Cover cell pellet with compound LG13 and incubate for 8 min at RT. • 12. Centrifuge at 1200 rpm for 5 min at RT. • 13. Wash with EtOH 50% and centrifuge at 1200 rpm for 5 min at RT, repeat ×3. • 14. Wash ×1 in PBS. • 15. Centrifuge at 1200 rpm for 5 min at RT. • 16. Incubate with the primary anti-biotin antibody diluted 1:400 in PBS ([Hyb-8] ab201341, Abcam) for 60 min at 37° C. • 17. Wash ×1 with PBS. • 18. Centrifuge at 1200 rpm for 5 min at RT. • 19. Incubate with secondary antibody, goat anti-mouse 568 Alexa Fluor conjugated, diluted 1:100 in PBS [Thermo Fisher Scientific (Cat no: A-11004)] for 20-30 min in dark and on ice. • 20. Wash ×1 with PBS. • 21. Centrifuge at 1200 rpm for 5 min at RT.

[3] = test system: human diploid lung fibroblasts (DLFs) and human bronchial epithelial cells (HBEC-Cdc6 Tet-ON); assay: IHC staining versus proliferation markers (Ki67 and BrdU incorporation); assay type: cell-based; details: FIG. 16
[4] = test system: senescent cells in biological systems with established senescence; assay: Quantitative analysis and concordance of SA-b-gal, SBB and GL13 staining; details: FIG. 15

CC1(COC(=O)CCCC[C@H]2SC[C@H]3NC(=O)N[C@H]32)Nc2cccc3c(/N=N/c4ccc(/N=N/c5ccccc5)c5ccccc45)ccc(c23)N1 (stereo partly drawn) [LG13, (2-methyl-6-((E)-(4-((E)-phenyldiazenyl)naphthalen-1-yl)diazenyl)-2,3-dihydro-1H-perimidin-2-yl)methyl 5-((3aR,4R,6aS)-2-oxohexahydro-1H-thieno[3,4-d]imidazol-4-yl)pentanoate]
staining under cell confluency ([1]; HeLa and Li-Fraumeni fibroblasts, FIG. 17): Negative
staining of serum starved HeLa cells after formalin fixing and paraffin embedding ([1]; cell block, FIG. 18): negative
false-positive staining due to serum starvation and cell confluency ([1]; compared with SA-b-gal, FIGS. 17 and 18): deprived of the false-positive staining disadvantages
staining after serum starvation ([1]; in comparison to SA-β-gal that gave positive signal, FIG. 18): Negative
colour of senescent cells after streptavidin-HRP/DAB detection [2]: clear dark-brown color
detection of senescent cells by flow cytometry (senescent cells): detects robustly senescent cells
relationship between IHC staining and proliferation markers (Ki67 and BrdU incorporation) [3]: Inverse relationship
specificity compared among SA-b-gal, SBB and GL13 staining [4]: concordance of specificity
